Our source for the IC50 values is patent US20260022142A1, “MACROCYCLIC IMMUNOMODULATORS” (Bristol-Myers Squibb Company, priority 2022, published 2026).

Numbered stars: 1 amine (or outer) side, 2 acyl side, 3 side chain; on linkers, the order of the positions; unused ones are H or OH. Bridge positions count the residues as written; N and C are the ends. Square brackets hold non-standard residues; d marks the D form. Peptide text beside a SMILES is read from it. * marks the point of attachment. Phe(3,4-F2) = N[C@@H](Cc1ccc(F)c(F)c1)C(=O)O; Bip = N[C@@H](Cc1ccc(-c2ccccc2)cc1)C(=O)O; Phe(3-Me) = Cc1cccc(C[C@H](N)C(=O)O)c1; X6 = O=C(Cc1ccc(CN[*:1])cc1)[*:2]; 4Pal = N[C@@H](Cc1ccncc1)C(=O)O; X1 = O=C(CN1CCN([*:1])CC1)[*:2]; Cha = N[C@@H](CC1CCCCC1)C(=O)O; Cit = NC(=O)NCCC[C@H](N)C(=O)O; 3Abz = Nc1cccc(C(=O)O)c1; Carboxymethyl = O=C(O)C*; Orn = NCCC[C@H](N)C(=O)O; Aun = NCCCCCCCCCCC(=O)O; Dab = NCC[C@H](N)C(=O)O; Dap = NC[C@H](N)C(=O)O; AEEA = NCCOCCOCC(=O)O; Ac3c = NC1(C(=O)O)CC1

This experiment deals with T1, PD-1/PD-L1 interaction (PE-labeled human PD-L1-Ig binding to Jurkat cell line over-expressing human PD-1) (Homo sapiens, UniProt Q15116).
T1 construct: expressed in transfected cells; host or cells: Jurkat
T1 sequence (Q15116 25-288): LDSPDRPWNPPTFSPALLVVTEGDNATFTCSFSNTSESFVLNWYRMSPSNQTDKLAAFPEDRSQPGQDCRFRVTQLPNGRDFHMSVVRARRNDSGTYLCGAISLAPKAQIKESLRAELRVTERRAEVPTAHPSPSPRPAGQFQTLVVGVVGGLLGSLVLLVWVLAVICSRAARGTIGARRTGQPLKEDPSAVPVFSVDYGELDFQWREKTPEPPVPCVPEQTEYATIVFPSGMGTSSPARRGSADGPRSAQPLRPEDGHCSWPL
Nature of the experiment: Jurkat-PD-1 Cell Binding High-Content Screening Assay (CBA). The format is cell-based. The settings on record: Jurkat cell line over-expressing human PD-1; PE-labeled PD-L1-Ig 20 nM final; read-out: Jurkat hPD1-PDL1 IC50. The method in brief: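 First, compound is added to PD-1-expressing Jurkat cells in serum-containing DMEM and left 2 h at 37° C. Next, PE-conjugated PD-L1-Ig is introduced at 20 nM final concentration for 1 hour. Finally, cells are fixed in 4% paraformaldehyde with Hoechst 33342, washed and imaged.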
For `CC(C)C[C@@H]1NC(=O)[C@H](Cc2c[nH]c3ccccc23)NC(=O)[C@H](CC(=O)O)NC(=O)[C@H](Cc2ccncc2)NC(=O)[C@H](Cc2ccc(OCC(=O)O)cc2)NC(=O)CSC[C@@H](C(=O)Nc2cccc(C(=O)NCCCCCCCCCCC(=O)O)c2)NC(=O)[C@H](CCCN)NC(=O)[C@H](C(C)C)NC(=O)[C@H](CC2CCCCC2)NC(=O)[C@H](CCN)NC(=O)[C@@H](CC(C)C)NC(=O)[C@H](CCCN)NC(=O)[C@H](C(C)C)NC(=O)[C@H](Cc2ccc(-c3ccccc3)cc2)NC1=O` [Compound 1312] ({CH2CO}-Y(Carboxymethyl)[4Pal]DWL[Bip]V[Orn][dL][Dab][Cha]V[Orn]C[3Abz][Aun]-OH; thioether N-14), the IC50 (in general, the concentration at which inhibition is half-maximal) turned out to be 0.105 µM.

Consider `CC(C)C[C@H]1NC(=O)[C@H](CCCN)NC(=O)[C@H](Cc2ccc(O)cc2)NC(=O)[C@H](Cc2ccc(-c3ccccc3)cc2)NC(=O)[C@H](Cc2ccc(OCC(=O)O)cc2)NC(=O)[C@H](Cc2ccc(F)c(F)c2)NC(=O)[C@H](CC(=O)O)NC(=O)[C@H](Cc2ccc(OCC(=O)O)cc2)NC(=O)[C@H](CN)NC(=O)CSC[C@@H](C(=O)N[C@@H](CCN)C(=O)NCCOCCOCC(=O)NCCCCCCCCCCC(=O)O)NC(=O)[C@H](CCCN)NC(=O)[C@H](C(C)C)NC(=O)[C@H](CC2CCCCC2)NC(=O)[C@H](CCN)NC1=O` [Compound 1313] ({CH2CO}-[Dap]Y(Carboxymethyl)D[Phe(3,4-F2)]Y(Carboxymethyl)[Bip]Y[Orn][dL][Dab][Cha]V[Orn]C[Dab][AEEA][Aun]-OH; thioether N-14), for which the IC50 is 0.109 µM.

Turning to `CC(C)C[C@@H]1NC(=O)[C@H](Cc2c[nH]c3ccccc23)NC(=O)[C@H](CC(=O)O)NC(=O)[C@H](Cc2ccncc2)NC(=O)[C@H](Cc2ccc(OCC(=O)O)cc2)NC(=O)CSC[C@@H](C(=O)N2CCN(CC(=O)NCCCCCCCCCCC(=O)O)CC2)NC(=O)[C@H](CCCNC(N)=O)NC(=O)[C@H](C(C)C)NC(=O)[C@H](CC2CCCCC2)NC(=O)[C@H](CCN)NC(=O)[C@@H](CC(C)C)NC(=O)[C@H](CCCN)NC(=O)[C@H](C(C)C)NC(=O)[C@H](Cc2ccc(-c3ccccc3)cc2)NC1=O` [Compound 1314] ({CH2CO}-Y(Carboxymethyl)[4Pal]DWL[Bip]V[Orn][dL][Dab][Cha]V[Cit]C[X1][Aun]-OH; thioether N-14), the IC50 stood at 0.11 µM.

On to `Cc1cccc(C[C@@H]2NC(=O)[C@H](CC(=O)O)NC(=O)[C@H](Cc3ccc(OCC(=O)O)cc3)NC(=O)[C@H](CN)NC(=O)CSC[C@@H](C(=O)N[C@@H](CCN)C(=O)NCCCCCCCCCCC(=O)O)NC(=O)[C@@H](CO)NC(=O)[C@H](C(C)C)NC(=O)[C@H](CC3CCCCC3)NC(=O)[C@H](CCN)NC(=O)[C@@H](CC(C)C)NC(=O)[C@H](CCCN)NC(=O)[C@H](CCCNC(N)=O)NC(=O)[C@H](Cc3ccc(-c4ccccc4)cc3)NC(=O)[C@H](C(C)C)NC2=O)c1` [Compound 2000] ({CH2CO}-[Dap]Y(Carboxymethyl)D[Phe(3-Me)]V[Bip][Cit][Orn][dL][Dab][Cha]V[dS]C[Dab][Aun]-OH; thioether N-14), for which the IC50 stood at 0.0143 µM.

For `Cc1cccc(C[C@@H]2NC(=O)[C@H](CC(=O)O)NC(=O)[C@H](Cc3ccc(OCC(=O)O)cc3)NC(=O)[C@H](CN)NC(=O)CSC[C@@H](C(=O)N[C@@H](CCCCN)C(=O)NCCCCCCCCCCC(=O)O)NC(=O)[C@@H](CO)NC(=O)[C@H](C(C)C)NC(=O)[C@H](CC3CCCCC3)NC(=O)[C@H](CCN)NC(=O)[C@@H](CC(C)C)NC(=O)[C@H](CCCN)NC(=O)[C@H](C(C)C)NC(=O)[C@H](Cc3ccc(-c4ccccc4)cc3)NC(=O)[C@H](C(C)C)NC2=O)c1` [Compound 2001] ({CH2CO}-[Dap]Y(Carboxymethyl)D[Phe(3-Me)]V[Bip]V[Orn][dL][Dab][Cha]V[dS]CK[Aun]-OH; thioether N-14), the IC50 was found to be 0.0324 µM.

For the molecule `Cc1cccc(C[C@@H]2NC(=O)[C@H](CC(=O)O)NC(=O)[C@H](Cc3ccc(OCC(=O)O)cc3)NC(=O)[C@H](CN)NC(=O)CSC[C@@H](C(=O)NCc3ccc(CC(=O)N[C@@H](CCN)C(=O)NCCCCCCCCCCC(=O)O)cc3)NC(=O)[C@H](CN)NC(=O)[C@H](C(C)C)NC(=O)[C@H](CC3CCCCC3)NC(=O)[C@H](CCN)NC(=O)[C@@H](CC(C)C)NC(=O)[C@H](CCCN)NC(=O)[C@H](C(C)C)NC(=O)[C@H](Cc3ccc(-c4ccccc4)cc3)NC(=O)[C@H](C(C)C)NC2=O)c1` [Compound 2003] ({CH2CO}-[Dap]Y(Carboxymethyl)D[Phe(3-Me)]V[Bip]V[Orn][dL][Dab][Cha]V[Dap]C[X6][Dab][Aun]-OH; thioether N-14), the IC50 stood at 0.136 µM.

Regarding `Cc1cccc(C[C@@H]2NC(=O)[C@H](CC(=O)O)NC(=O)[C@H](Cc3ccc(OCC(=O)O)cc3)NC(=O)[C@H](CN)NC(=O)CSC[C@@H](C(=O)N[C@@H](CCCN)C(=O)NCc3ccc(CC(=O)NCCCCCCCCCCC(=O)O)cc3)NC(=O)[C@H](CN)NC(=O)[C@H](C(C)C)NC(=O)[C@H](CC3CCCCC3)NC(=O)[C@H](CCN)NC(=O)[C@@H](CC(C)C)NC(=O)[C@H](CCCN)NC(=O)[C@H](C(C)C)NC(=O)[C@H](Cc3ccc(-c4ccccc4)cc3)NC(=O)[C@H](C(C)C)NC2=O)c1` [Compound 2004] ({CH2CO}-[Dap]Y(Carboxymethyl)D[Phe(3-Me)]V[Bip]V[Orn][dL][Dab][Cha]V[Dap]C[Orn][X6][Aun]-OH; thioether N-14), the IC50 came to 0.0186 µM.

As for `CC[C@H](C)[C@@H]1NC(=O)[C@H](Cc2ccc(-c3ccccc3)cc2)NC(=O)[C@H](C(C)C)NC(=O)[C@H](Cc2c[nH]c3ccccc23)NC(=O)[C@H](CC(=O)O)NC(=O)[C@H](Cc2ccc(OCC(=O)O)cc2)NC(=O)[C@H](Cc2ccncc2)NC(=O)CSC[C@@H](C(=O)N[C@@H](CCCN)C(=O)NCCOCCOCC(=O)NC2(C(=O)NCCCCCCCCCCC(=O)O)CC2)NC(=O)[C@H]([C@@H](C)O)NC(=O)[C@H](C(C)C)NC(=O)[C@H](CC(C)C)NC(=O)[C@H](CCN)NC(=O)[C@@H](CC(C)C)NC(=O)[C@H](CCCN)NC1=O` [Compound 2005] ({CH2CO}-[4Pal]Y(Carboxymethyl)DWV[Bip]I[Orn][dL][Dab]LVTC[Orn][AEEA][Ac3c][Aun]-OH; thioether N-14), the IC50 amounted to 0.0116 µM.

As for `CC[C@H](C)[C@@H]1NC(=O)[C@H](Cc2ccc(-c3ccccc3)cc2)NC(=O)[C@H](C(C)C)NC(=O)[C@H](Cc2c[nH]c3ccccc23)NC(=O)[C@H](CC(=O)O)NC(=O)[C@H](Cc2ccc(OCC(=O)O)cc2)NC(=O)[C@H](Cc2ccncc2)NC(=O)CSC[C@@H](C(=O)N[C@@H](CCCN)C(=O)NCCOCCOCC(=O)NC2(C(=O)NCCCCCCCCCCC(=O)O)CC2)NC(=O)[C@H](CN)NC(=O)[C@H](C(C)C)NC(=O)[C@H](CC(C)C)NC(=O)[C@H](CCN)NC(=O)[C@@H](CC(C)C)NC(=O)[C@H](CCCN)NC1=O` [Compound 2006] ({CH2CO}-[4Pal]Y(Carboxymethyl)DWV[Bip]I[Orn][dL][Dab]LV[Dap]C[Orn][AEEA][Ac3c][Aun]-OH; thioether N-14), the half-maximal inhibitory concentration (IC50) was found to be 0.0077 µM.

As for `Cc1cccc(C[C@@H]2NC(=O)[C@H](CC(=O)O)NC(=O)[C@H](Cc3ccc(OCC(=O)O)cc3)NC(=O)[C@H](CN)NC(=O)CSC[C@@H](C(=O)N[C@@H](C)C(=O)N[C@@H](CCCN)C(=O)NCC(=O)NCCCCCCCCCCC(=O)O)NC(=O)[C@H]([C@@H](C)O)NC(=O)[C@H](C(C)C)NC(=O)[C@H](CC3CCCCC3)NC(=O)[C@H](CCN)NC(=O)[C@@H](CC(C)C)NC(=O)[C@H](CCCN)NC(=O)[C@H](CCCNC(=N)N)NC(=O)[C@H](Cc3ccc(-c4ccccc4)cc3)NC(=O)[C@H](C(C)C)NC2=O)c1` [Compound 2007] ({CH2CO}-[Dap]Y(Carboxymethyl)D[Phe(3-Me)]V[Bip]R[Orn][dL][Dab][Cha]VTCA[Orn]G[Aun]-OH; thioether N-14), the IC50 came out at 0.0137 µM.

Turning to `Cc1cccc(C[C@@H]2NC(=O)[C@H](CC(=O)O)NC(=O)[C@H](Cc3ccc(OCC(=O)O)cc3)NC(=O)[C@H](CN)NC(=O)CSC[C@@H](C(=O)N[C@@H](CCCCN)C(=O)NCCCCCCCCCCC(=O)O)NC(=O)[C@@H](CO)NC(=O)[C@H](C(C)C)NC(=O)[C@H](CC(C)C)NC(=O)[C@H](CCN)NC(=O)[C@@H](CC(C)C)NC(=O)[C@H](CCCN)NC(=O)[C@H](C(C)C)NC(=O)[C@H](Cc3ccc(-c4ccccc4)cc3)NC(=O)[C@H](C(C)C)NC2=O)c1` [Compound 2009] ({CH2CO}-[Dap]Y(Carboxymethyl)D[Phe(3-Me)]V[Bip]V[Orn][dL][Dab]LV[dS]CK[Aun]-OH; thioether N-14), the IC50 amounted to 0.0172 µM.

Regarding `Cc1cccc(C[C@@H]2NC(=O)[C@H](CC(=O)O)NC(=O)[C@H](Cc3ccc(OCC(=O)O)cc3)NC(=O)[C@H](CN)NC(=O)CSC[C@@H](C(=O)NC3(C(=O)NCCCCCCCCCCC(=O)O)CC3)NC(=O)[C@H]([C@@H](C)O)NC(=O)[C@H](C(C)C)NC(=O)[C@H](CC3CCCCC3)NC(=O)[C@H](CCN)NC(=O)[C@@H](CC(C)C)NC(=O)[C@H](CCCN)NC(=O)[C@H](CCCNC(N)=O)NC(=O)[C@H](Cc3ccc(-c4ccccc4)cc3)NC(=O)[C@H](C(C)C)NC2=O)c1` [Compound 2010] ({CH2CO}-[Dap]Y(Carboxymethyl)D[Phe(3-Me)]V[Bip][Cit][Orn][dL][Dab][Cha]VTC[Ac3c][Aun]-OH; thioether N-14), the IC50 came out at 0.0153 µM.

Take `Cc1cccc(C[C@@H]2NC(=O)[C@H](CC(=O)O)NC(=O)[C@H](Cc3ccc(OCC(=O)O)cc3)NC(=O)[C@H](CN)NC(=O)CSC[C@@H](C(=O)NCc3ccc(CC(=O)N[C@@H](CCCCN)C(=O)NCCCCCCCCCCC(=O)O)cc3)NC(=O)[C@H](CN)NC(=O)[C@H](C(C)C)NC(=O)[C@H](CC3CCCCC3)NC(=O)[C@H](CCN)NC(=O)[C@@H](CC(C)C)NC(=O)[C@H](CCCN)NC(=O)[C@H](C(C)C)NC(=O)[C@H](Cc3ccc(-c4ccccc4)cc3)NC(=O)[C@H](C(C)C)NC2=O)c1` [Compound 2011] ({CH2CO}-[Dap]Y(Carboxymethyl)D[Phe(3-Me)]V[Bip]V[Orn][dL][Dab][Cha]V[Dap]C[X6]K[Aun]-OH; thioether N-14): the IC50 was 0.0248 µM.
